Values of other authors as cited in patent publication US9675603B2, “Solid pharmaceutical compositions of ppary modulator” (InteKrin Therapeutics, Inc., priority 2010, dated 2017).

For `O=S(=O)(Nc1cc(Cl)c(Oc2cnc3ccccc3c2)c(Cl)c1)c1ccc(Cl)cc1Cl.O=S(=O)(O)c1ccccc1` [besylate salt of compound 101, 2,4-Dichloro-N-[3,5-dichloro-4-(quinolin-3-yloxy)-phenyl]-benzenesulfonamide benzenesulfonate salt], the “Stability and hygroscopic properties” value (compared to other salts of compound 101, U.S. Pat. No. 7,223,761 B2) is given as “superior stability and hygroscopic properties” and the Solubility (in aqueous solvents and in most organic solvents) is given as “sparingly soluble”.
